From US20240277658A1, “NLRP3 ACTIVATORS FOR USE IN THE TREATMENT OF INFECTIOUS DISEASES OR CANCER BY ACTIVATING NLRP3 INFLAMMASOME” (ALBERT-LUDWIGS-UNIVERSITÄT FREIBURG, priority 2020, published 2024)
“And” between values parts separate entries of the source, which are not always exact repeats. Equal entries are not always repeated. Where two headings read alike, the source gives them in different places.

Columns and labels:
BMDCs = assay: LDH release (lytic cell death, pyroptosis) from LPS-primed BMDCs; type: cell-based, mouse; conditions: for cytotoxicity at 18.75 µM / cytotoxicity at 37.5 µM / cytotoxicity at 75 µM / cytotoxicity at 25 µM / cytotoxicity at 50 µM: Mus musculus, BMDC; for Average (% positive control): LDH release; for cytotoxicity at 25 µM / cytotoxicity at 50 µM: AH series table
Method: (§1) This was tested in cell culture in several different in vitro assays classically used to investigate inflammasome activation. These include measuring inflammasome-dependent lytic cell death (pyroptosis) by detecting release of the cytosolic enzyme lactate dehydrogenase (LDH) using a commercial colorimetric assay and release of proinflammatory cytokines like IL-1β by enzyme-linked immunosorbent assay (ELISA), analyzing cleavage and activation of caspase-1 and IL-1β by immunoblotting and immunofluorescence imaging of ASC speck formation. Lytic cell death was determined via LDH release. Assay results for compounds are illustrated in the Tables below, wherein the concentration of the compounds tested had been 50 μM or as indicated in the table, and the concentration of the known activators has been tested with 5 μM of nigericin, 100 μM of each R837 and CL097. For classification of the activity of a given molecule, release of IL-1β was quantified as % of IL-1% of a respective control activator used for the experiment (highlighted in tables with bold letters). The compounds listes in Table 1 were classified into 4 groups depending on their ability to induce the NLRP3 inflammasome activation, assessed by % IL-1β release as compared to the positive control.
(§2) Mouse bone marrow-derived dendritic cells (BMDCs) were isolated from femurs and tibias previously described (Gross, Olaf, 2012, “Measuring the inflammasome”, Methods in molecular biology, Clifton, N.J., 844, pp. 199-222.). In brief, tibias and femurs were carefully removed and put to sterile 70% ethanol for 1 minute. Using a 22-G needle attached to a 20 ml-syringe filled with sterile flushing medium, the bone marrow was pressed through the mesh of a […] cell strainer. The cells were spun down by centrifugation at 400×g, 4° C. for 5 minutes and red blood cells lysed by resuspension and incubation for 5 minutes at room temperature in RBC lysis buffer. 9 ml of flushing medium were added and cells were again spun down by centrifugation at 400×g, 4° C. for 5 minutes. Cells were then resuspended in BMDC medium (RPMI, 10% fetal bovine serum, 1% penicillin-streptomycin100 U/ml, 20 ng/ml recombinant murine GM-CSF), counted and plated at a density of 0.5×10^6 cells ml^−1 in 10 ml medium and incubated at 37° C., 5% CO2 in a humidified incubator. After 2 days, 10 ml of fresh medium were added to the cells and after 4 days, the medium was fully exchanged to 20 ml of fresh medium. The cells were allowed to differentiate for 6 to 8 days before usage.
(§3) For canonical inflammasome activation BMDCs after 7-9 days of differentiation were harvested and counted with a Neubauer Chamber (Hecht Assistant) and the concentration was set to 1 Mio cells ml^−1. 100 μl cell suspension per well were seeded in 96-well plates. The cells were primed with 50 ng ml^−1 E. coli K12 ultra-pure LPS for 3 hours and subsequently treated with canonical inflammasome activators or experimental compounds for 3 hours if not indicated differently (incubation time FIG. 4D, 5, 7, 8, 11, 13-18: 3 h, FIG. 12: 4 h). Concentrations of the stimuli were as follows if not indicated differently: 5 μM nigericin, 100 μM imiquimod (also known as R837), 100 μM CL097, 100 μM R848, […] poly(dA:dT), 300 μg ml^−1 MSU. If an inhibitor was used before stimuli treatment, the inhibitor was added after 2.5 hours of priming and it was incubated for 30 minutes before inflammasome activation. Inhibitors were used as follows: 3 μM MCC950, 45 mM KCl, 30 μM ebselen (2-Phenyl-1,2-benzoselenazol-3-one), 5 μM cytochalasin D (see FIGS. 8, 11, 12 and 17).
(§4) All inflammasome stimulations were performed in three technical replicates for each condition. […]

NLRP3 inflammasome = target: T1, NLRP3 inflammasome (Mus musculus, UniProt Q8R4B8); assay: IL-1β release from LPS-primed BMDCs (ELISA) as readout of NLRP3 inflammasome activation; type: cell-based; conditions: for IL-1β: individual replicate values; for Average (% positive control): IL-1β
T1 construct: endogenous in cells; host or cells: primary mouse bone marrow-derived dendritic cells (BMDCs), LPS-primed
T1 sequence (Q8R4B8 whole entry): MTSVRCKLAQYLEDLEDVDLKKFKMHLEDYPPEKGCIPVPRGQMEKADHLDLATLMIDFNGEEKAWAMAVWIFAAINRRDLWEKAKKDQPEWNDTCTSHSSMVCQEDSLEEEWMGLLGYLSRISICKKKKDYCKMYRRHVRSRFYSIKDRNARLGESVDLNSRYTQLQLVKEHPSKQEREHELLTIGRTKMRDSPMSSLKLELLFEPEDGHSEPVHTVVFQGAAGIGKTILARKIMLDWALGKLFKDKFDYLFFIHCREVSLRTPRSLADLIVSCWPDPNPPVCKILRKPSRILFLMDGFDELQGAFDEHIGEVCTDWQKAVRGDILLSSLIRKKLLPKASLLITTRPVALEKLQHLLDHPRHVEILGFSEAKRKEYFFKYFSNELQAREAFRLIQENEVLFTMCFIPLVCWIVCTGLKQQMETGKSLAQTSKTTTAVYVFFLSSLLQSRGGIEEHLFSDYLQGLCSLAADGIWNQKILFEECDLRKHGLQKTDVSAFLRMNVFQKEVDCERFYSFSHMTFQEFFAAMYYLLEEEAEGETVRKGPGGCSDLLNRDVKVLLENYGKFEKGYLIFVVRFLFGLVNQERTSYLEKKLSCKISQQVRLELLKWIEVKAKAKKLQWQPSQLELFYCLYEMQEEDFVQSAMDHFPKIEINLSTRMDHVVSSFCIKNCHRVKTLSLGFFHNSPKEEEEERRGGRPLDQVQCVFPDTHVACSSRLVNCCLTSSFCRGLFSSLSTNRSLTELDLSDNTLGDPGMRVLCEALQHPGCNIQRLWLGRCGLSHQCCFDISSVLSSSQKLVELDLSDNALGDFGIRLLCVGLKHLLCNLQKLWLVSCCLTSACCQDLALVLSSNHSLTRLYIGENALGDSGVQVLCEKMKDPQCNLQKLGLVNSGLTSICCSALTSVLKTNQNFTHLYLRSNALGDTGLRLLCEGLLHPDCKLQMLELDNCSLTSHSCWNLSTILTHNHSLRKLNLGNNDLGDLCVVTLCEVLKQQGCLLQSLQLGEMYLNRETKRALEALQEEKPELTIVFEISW
Method: as §1, §2, §3, §4

[1] = 25 μM, positive control EN22 10 μM
[2] = 50 μM, positive control EN22 10 μM
[3] = 75 μM, positive control EN22 10 μM
[4] = 25 μM, read-out: Average LDH release (% of max.)
[5] = 25 μM, individual replicate values, read-out: LDH release (% of max.)
[6] = 50 μM, read-out: Average LDH release (% of max.)
[7] = 50 μM, individual replicate values, read-out: LDH release (% of max.)
[8] = 75 μM, individual replicate values, read-out: LDH release (% of max.)
[9] = 75 μM, read-out: Average LDH release (% of max.)

Row | SMILES | Average (% positive control) (BMDCs; [1]) | Average (% positive control) (BMDCs; [2]) | Average (% positive control) (BMDCs; [3]) | cytotoxicity at 25 µM (BMDCs; [4]) [%] | cytotoxicity at 25 µM (BMDCs; [5]) [%] | cytotoxicity at 50 µM (BMDCs; [6]) [%] | cytotoxicity at 50 µM (BMDCs; [7]) [%] | cytotoxicity at 75 µM (BMDCs; [8]) [%] | cytotoxicity at 75 µM (BMDCs; [9]) [%] | Average IL-1β (NLRP3 inflammasome; 25 μM, AH series table) | IL-1β (NLRP3 inflammasome; 25 μM, AH series table) | Average IL-1β (NLRP3 inflammasome; 50 μM, AH series table) [ng/mL] | IL-1β (NLRP3 inflammasome; 50 μM, AH series table) | Average IL-1β (NLRP3 inflammasome; 75 μM, AH series table) [ng/mL] | IL-1β (NLRP3 inflammasome; 75 μM, AH series table) | Average (% positive control) (NLRP3 inflammasome; [1]) | Average (% positive control) (NLRP3 inflammasome; [2]) | Average (% positive control) (NLRP3 inflammasome; [3]) | further results
1 | O=C(Nc1ccccc1Cl)Nc1ccc([N+](=O)[O-])cc1Cl [A.C2, 3-(2-chloro-4-nitrophen-yl)-1-(2-chlorophenyl)-urea] | – | – | – | – | – | – | – | – | – | – | – | – | – | – | – | – | – | – | cytotoxicity at 18.75 µM (BMDCs; section 1.4, 18.75 μM, read-out: Average LDH release (% of max.)): 17.8%; cytotoxicity at 37.5 µM (BMDCs; section 1.4, 37.5 μM, read-out: Average LDH release (% of max.)): 45.7%; cytotoxicity at 75 µM (BMDCs; section 1.4, 75 μM, read-out: Average LDH release (% of max.)): 75.8%; cytotoxicity at 18.75 µM (BMDCs; section 1.4, single replicates, 18.75 μM, read-out: LDH release (% of max.)): 18.4%; cytotoxicity at 37.5 µM (BMDCs; section 1.4, single replicates, 37.5 μM, read-out: LDH release (% of max.)): 46.6%; cytotoxicity at 75 µM (BMDCs; section 1.4, single replicates, 75 μM, read-out: LDH release (% of max.)): 77.1%; Average (% positive control) (BMDCs; section 1.4, 18.75 μM, positive control EN22 18.75 μM): 24.912 % positive control; Average (% positive control) (BMDCs; section 1.4, 37.5 μM, positive control EN22 18.75 μM): 64.016 % positive control; Average (% positive control) (BMDCs; section 1.4, 75 μM, positive control EN22 18.75 μM): 106.244 % positive control; Average IL-1β (NLRP3 inflammasome; 18.75 μM): 0.118 ng/mL; IL-1β (NLRP3 inflammasome; 18.75 μM): 0.128 ng/mL and 0.116 ng/mL and 0.111 ng/mL; Average IL-1β (NLRP3 inflammasome; 37.5 μM): 0.361 ng/mL; IL-1β (NLRP3 inflammasome; 37.5 μM): 0.377 ng/ml and 0.353 ng/ml (2×); Average IL-1β (NLRP3 inflammasome; 75 μM): 0.525 ng/mL; IL-1β (NLRP3 inflammasome; 75 μM): 0.459 ng/mL and 0.546 ng/mL and 0.571 ng/mL; Average (% positive control) (NLRP3 inflammasome; 18.75 μM, positive control EN22 18.75 μM): 1.870 % positive control; Average (% positive control) (NLRP3 inflammasome; 37.5 μM, positive control EN22 18.75 μM): 5.712 % positive control; Average (% positive control) (NLRP3 inflammasome; 75 μM, positive control EN22 18.75 μM): 8.308 % positive control
2 | O=C(Nc1cc(Cl)cc(Cl)c1)Nc1ccc([N+](=O)[O-])cc1Cl [AH1, 1-(2-chloro-4-nitrophenyl)-3-(3,5-dichlorophenyl) urea] | 53.499 | 74.390 | 78.340 | 41.1 | 42.1 | 57.1 | 55.7 | 60.7 | 60.2 | 1.177 ng/mL | 1.140 ng/mL and 1.156 ng/mL and 1.234 ng/mL | 1.578 | 1.533 ng/mL and 1.609 ng/mL and 1.592 ng/mL | 1.533 | 1.619 ng/mL and 1.382 ng/mL and 1.598 ng/mL | 11.766 % positive control | 15.776 | 15.328 | –
3 | O=[N+]([O-])c1ccc(NC(=S)Nc2cccc(Cl)c2)c(Cl)c1 [AH2, 1-(2-chloro-4-nitrophenyl)-3-(3-chlorophenyl) thiourea] | 29.680 | 28.819 | 33.532 | 22.8 | 23.9 | 22.1 | 22.8 | 25.1 | 25.8 | 0.194 ng/mL and 0.251 ng/mL | 0.197 ng/mL and 0.186 ng/mL and 0.200 ng/mL and 0.280 ng/mL and 0.232 ng/mL and 0.243 ng/mL | – | – | 0.187 | 0.176 ng/ml and 0.193 ng/ml (2×) | 1.942 % positive control and 2.514 % positive control | – | 1.872 | –
4 | Cc1c(F)cccc1NC(=O)Nc1cccc(Cl)c1 [AH3, 1-(3-chlorophenyl)-3-(3-fluoro-2-methylphenyl) urea] | 16.733 | 29.496 | 44.370 | 12.9 | 12.8 | 22.7 | 22.2 | 34.6 | 34.1 | 0.588 ng/mL | 0.540 ng/mL and 0.630 ng/mL and 0.593 ng/mL | 1.519 | 1.267 ng/mL and 1.615 ng/mL and 1.675 ng/mL | 2.224 | 2.288 ng/mL and 2.351 ng/mL and 2.032 ng/mL | 5.875 % positive control | 15.193 | 22.240 | –
